The conditions of data set [1]: 298.15 K; 101.33 kPa; Liquid; Vibrating tube method.
A short description of data set [2]: refractive index (Na D-line) (dimensionless). Conditions: 101.33 kPa, Liquid, Standard Abbe refractometry.

The values that follow come from the NIST ThermoML archive (doi:10.1016/j.jct.2013.01.015).

± gives the expanded uncertainty stated by the source.

Regarding `CCCCCCO` [hexan-1-ol], in data set [1], the mass density was 815.2 ± 0.6 kg/m3. In addition, in data set [2] (298.15 K), the refractive index is reported as 1.4155 ± 0.0009.
In the case of `CCCC(=O)O` [butanoic acid], in data set [1], the mass density worked out at 952.7 ± 0.2 kg/m3. Further, the refractive index in data set [2] (298.2 K) is reported as 1.3976 ± 0.0008.
Turning to `CCCCCC` [hexane], in data set [1], the mass density was found to be 654.6 ± 0.3 kg/m3. For the same molecule, in data set [2] (298.15 K), the refractive index was 1.3751 ± 0.0008.
`O` [water]: the refractive index in data set [2] (298.15 K) is 1.3325 ± 0.0008.
